The values that follow come from US20150330989A1, “METHOD AND SYSTEM FOR DIAGNOSING AND TREATING PREECLAMPSIA” (THE BRIGHAM AND WOMEN'S HOSPITAL, INC., priority 2012, published 2015).

Structures are written as SMILES.

For assay [1], the target named is factor D (Homo sapiens, UniProt P00746). Particulars: site of action factor D; cited from earlier work.
Assay [2] deals with T1, C2, classical (Homo sapiens, UniProt P06681).
T1 sequence (P06681 21-752): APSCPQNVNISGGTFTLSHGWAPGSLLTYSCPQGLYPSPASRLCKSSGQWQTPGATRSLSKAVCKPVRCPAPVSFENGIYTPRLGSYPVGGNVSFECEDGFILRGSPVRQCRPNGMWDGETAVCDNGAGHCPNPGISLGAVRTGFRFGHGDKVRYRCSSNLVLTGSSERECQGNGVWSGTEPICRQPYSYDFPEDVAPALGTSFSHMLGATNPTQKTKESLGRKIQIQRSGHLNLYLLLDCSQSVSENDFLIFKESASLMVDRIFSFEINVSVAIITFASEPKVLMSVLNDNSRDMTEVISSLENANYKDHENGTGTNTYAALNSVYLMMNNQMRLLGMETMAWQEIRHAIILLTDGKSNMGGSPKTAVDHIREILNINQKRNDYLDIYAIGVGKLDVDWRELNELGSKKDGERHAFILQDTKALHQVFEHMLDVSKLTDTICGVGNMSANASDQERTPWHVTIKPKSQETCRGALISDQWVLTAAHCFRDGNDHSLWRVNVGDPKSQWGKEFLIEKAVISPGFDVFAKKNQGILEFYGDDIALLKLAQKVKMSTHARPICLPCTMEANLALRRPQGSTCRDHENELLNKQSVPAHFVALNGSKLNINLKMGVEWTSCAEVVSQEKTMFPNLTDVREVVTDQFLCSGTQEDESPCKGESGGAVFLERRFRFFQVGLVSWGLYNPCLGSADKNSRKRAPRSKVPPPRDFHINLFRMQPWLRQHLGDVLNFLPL
The conditions noted are these: in vitro; cited from earlier work.

Assay [3] concerns patent ductus arteriosus. The assay is described as follows: NICU course of the neonate. It is filed as in vivo, human. The procedure:
The neonate was intubated at 10 min of life for respiratory support and admitted to the NICU. They were extubated the following morning after one dose of surfactant; blood cultures were negative; and head ultrasound was normal. NICU course was notable for a patent ductus arteriosus (responsive to Indomethacin) and inguinal hernia repair (day 67), after which they were discharged home in good condition. There were trace levels of Eculizumab in cord blood samples taken at delivery, thought secondary to contamination with maternal blood.

In assay [4] the test system is severe preeclampsia/HELLP syndrome. The assay is described as follows: Case report: Eculizumab treatment of a pregnant patient with severe preeclampsia/HELLP syndrome. It is filed as in vivo, human. Particulars: initial course during Eculizumab treatment.
Assay [5] addresses T2, C3 convertase, classical (Homo sapiens, UniProt P06681).
T2 sequence (P06681 244-752 limits assumed): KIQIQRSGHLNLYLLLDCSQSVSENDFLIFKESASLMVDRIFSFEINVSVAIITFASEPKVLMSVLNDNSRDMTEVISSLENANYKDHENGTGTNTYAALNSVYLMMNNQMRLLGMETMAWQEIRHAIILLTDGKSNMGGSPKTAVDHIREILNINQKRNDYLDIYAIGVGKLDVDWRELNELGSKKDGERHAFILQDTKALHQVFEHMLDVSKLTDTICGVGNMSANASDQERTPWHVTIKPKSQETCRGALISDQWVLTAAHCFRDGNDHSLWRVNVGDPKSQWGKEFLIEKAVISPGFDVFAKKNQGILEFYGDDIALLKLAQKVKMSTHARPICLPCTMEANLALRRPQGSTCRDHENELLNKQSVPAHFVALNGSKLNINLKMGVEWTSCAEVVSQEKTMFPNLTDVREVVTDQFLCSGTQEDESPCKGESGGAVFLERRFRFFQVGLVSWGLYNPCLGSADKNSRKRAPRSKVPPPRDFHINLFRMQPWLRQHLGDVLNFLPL
The conditions noted are these: in vitro; cited from earlier work.

Sequence of factor D (P00746 26-253): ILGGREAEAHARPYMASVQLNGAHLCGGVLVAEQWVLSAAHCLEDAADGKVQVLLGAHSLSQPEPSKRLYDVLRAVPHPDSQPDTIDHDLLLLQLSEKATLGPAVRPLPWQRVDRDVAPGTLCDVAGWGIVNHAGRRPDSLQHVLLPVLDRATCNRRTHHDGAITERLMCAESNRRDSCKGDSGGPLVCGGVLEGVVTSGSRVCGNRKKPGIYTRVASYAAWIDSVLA

Consider `N=C(N)c1cc2ccc(OC(=O)c3cccs3)cc2s1` [BCX-1470], for which the IC50 – broadly, the concentration that gives 50% inhibition – in assay [1] was 0.096 µM.
For `CC1(C)[C@@H](O[C@H]2O[C@H](C(=O)O)[C@@H](O)[C@H](O)[C@H]2O[C@@H]2O[C@H](C(=O)O)[C@@H](O)[C@H](O)[C@H]2O)CC[C@]2(C)[C@H]3C(=O)C=C4[C@@H]5C[C@@](C)(C(=O)O)CC[C@]5(C)CC[C@@]4(C)[C@]3(C)CC[C@@H]12` [Glycyrrhizin], in assay [2], the IC50 was 35 µM.
As to `COc1ccc2c(c1)c(CC(=O)O)c(C)n2C(=O)c1ccc(Cl)cc1` [Indomethacin], in assay [3], the “patent ductus arteriosus, response” value is on record as “responsive”.
Consider `CC(CCc1ccccc1)NCC(O)c1ccc(O)c(C(N)=O)c1` (stereo not drawn) [Labetalol], for which, in assay [4], the “escalating blood pressures, response” value was “responded”.
On to `NS(=O)(=O)c1cc(C(=O)O)c(NCc2ccco2)cc1Cl` [Lasix], for which, in assay [4], the “pulmonary edema, response” value is “responded”.
Regarding `O=C(/C=C/c1ccc(O)c(O)c1)O[C@H](Cc1ccc(O)c(O)c1)C(=O)O` [Rosmarinic acid], in assay [5], the IC50 was 5 to 10 µM.
